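Assay format: 96-well plates, 48-hour exposure. At the TGI there is no net growth.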
Columns and labels:
Assay in all cases: growth of human tumour cells (NCI), 48 h
UO-31 renal = system: UO-31 renal
SK-OV-3 ovarian = system: SK-OV-3 ovarian
NCI-H23 lung = system: NCI-H23 lung
COLO 205 colon = system: COLO 205 colon
SF-295 CNS = system: SF-295 CNS
IGROV1 ovarian = system: IGROV1 ovarian
CAKI-1 renal = system: CAKI-1 renal
MCF7 breast = system: MCF7 breast
HCC-2998 colon = system: HCC-2998 colon
DU-145 prostate = system: DU-145 prostate

Row | SMILES | TGI (UO-31 renal) [µM] | TGI (SK-OV-3 ovarian) [µM] | TGI (NCI-H23 lung) [µM] | TGI (COLO 205 colon) [µM] | TGI (SF-295 CNS) [µM] | TGI (IGROV1 ovarian) [µM] | TGI (CAKI-1 renal) [µM] | TGI (MCF7 breast) [µM] | TGI (HCC-2998 colon) [µM] | TGI (DU-145 prostate) [µM]
1 | O=C(NCCNCCO)N/N=C/c1cccc([N+](=O)[O-])c1 | > 100 | > 100 | > 100 | > 100 | > 100 | > 100 | > 100 | – | – | –
2 | Cc1cc(Br)c(N2C3=C(CC4=C2CCCC4=O)C(=O)CCC3)c(Br)c1 | > 100 | > 100 | > 100 | – | – | > 100 | > 100 | > 100 | > 100 | –
3 | COC(=O)C(=O)C(C(=O)C(=O)Nc1ccccc1C(=O)OC)c1nc2ccc(C(=O)c3ccccc3)cc2[nH]c1=O (centres undefined) | > 100 | > 100 | > 100 | – | > 100 | > 100 | > 100 | > 100 | – | –
4 | N#Cc1c(-c2ccco2)c2c(n(C3OC(CO)C(O)C(O)C3O)c1=S)CCCC2 (centres undefined) | – | > 100 | > 100 | > 100 | > 100 | > 100 | > 100 | > 100 | > 100 | > 100
5 | CS(=O)(=O)NNS(=O)(=O)c1ccc(Br)cc1 | > 100 | > 100 | > 100 | > 100 | – | > 100 | > 100 | – | > 100 | –
6 | Cc1ncc([N+](=O)[O-])n1CCN(C)CCCCn1ccnc1[N+](=O)[O-] | > 100 | > 100 | > 100 | > 100 | > 100 | – | > 100 | > 100 | > 100 | > 100
7 | CC12CC3c4ccccc4CN1C3(c1ccccc1)OC2=O (centres undefined) | > 100 | > 100 | > 100 | > 100 | > 100 | > 100 | > 100 | – | – | > 100
8 | Oc1ccc(-c2cc(-c3c(O)cc(O)cc3O)on2)cc1 | > 100 | > 100 | > 100 | – | > 100 | > 100 | > 100 | > 100 | > 100 | > 100
9 | COc1c(C2(c3ccc(F)cc3)SCCCS2)c(=O)c1=O | > 100 | > 100 | > 100 | > 100 | > 100 | – | > 100 | > 100 | > 100 | > 100
10 | c1ccc2[nH]c(-c3nc4ccccc4o3)nc2c1 | > 100 | > 100 | > 100 | > 100 | > 100 | > 100 | – | – | > 100 | –
11 | C[N+]1(C)C2Cc3ccccc3C1Cc1ccccc12 | > 100 | > 100 | > 100 | > 100 | > 100 | > 100 | – | > 100 | > 100 | > 100
12 | C=CCN1C(=O)CS/C1=N\NC(=O)c1c(C)nc2sccn12 | – | > 100 | > 100 | > 100 | > 100 | > 100 | > 100 | – | > 100 | –
13 | CC(C)CN1CN(c2ccccc2)C2(CCN(CC(C)(c3ccc(F)cc3)C3OCCO3)CC2)C1=O (centres undefined) | 9.77 | 14.3 | 8.69 | 3.71 | 10.9 | – | 24.4 | 13.8 | 8.52 | 14.8
14 | Oc1c(Cl)c2nccnc2c2ccccc12 | > 100 | > 100 | > 100 | > 100 | > 100 | > 100 | – | – | > 100 | –
15 | Cc1ccc(OP2(=O)Oc3ccc4ccccc4c3CN2c2ccc(Cl)cc2)cc1C (centres undefined) | > 100 | > 100 | > 100 | > 100 | > 100 | > 100 | > 100 | > 100 | > 100 | –
16 | c1cnc2c(c1)-n1cccc1C1(CCOCC1)NN2 | > 100 | > 100 | > 100 | > 100 | > 100 | > 100 | > 100 | – | > 100 | –
17 | COC(=O)c1ccc(CN2CCc3c([nH]c4ccccc34)C2CO)o1 (centres undefined) | – | > 10 | > 10 | > 10 | > 10 | > 10 | > 10 | > 10 | > 10 | > 10
18 | Cc1ccc(-c2cc(-c3ccco3)nc(N)n2)o1 | > 100 | – | > 100 | > 100 | > 100 | > 100 | – | – | – | –
19 | Cc1cc(-c2ccc(C(=O)C(Cl)(Cl)Cl)[nH]2)on1 | 56.7 | > 100 | 54.3 | > 100 | > 100 | – | 36.7 | – | – | 39.6
20 | NCCC1(N)CCNCC1 | > 100 | > 100 | > 100 | > 100 | > 100 | > 100 | > 100 | – | – | > 100
21 | Cc1ccc(N=Nc2c(O)c3ccccc3[nH]c2=O)c(S(=O)(=O)N(C)C)c1 | > 100 | > 100 | > 100 | > 100 | > 100 | > 100 | > 100 | > 100 | – | > 100
22 | CC(C)(C)C1CC[C@H]2c3c([nH]c4ccc(Br)cc34)[C@H]3C(=O)N(c4ccccc4)C(=O)[C@H]3[C@H]2C1 (some centres undefined) | > 100 | 40.8 | > 100 | 44.2 | 43.1 | > 100 | > 100 | – | > 100 | –
23 | C=C/C(C)=C/[C@H](C)C(=O)C[C@H](O)CC1CC(=O)NC(=O)C1 | > 100 | > 100 | > 100 | > 100 | > 100 | > 86.7 | > 100 | > 100 | > 100 | –
24 | CCCCCCCCCCCCNC(=O)NCC(OCC)OCC | – | > 10 | > 10 | > 10 | > 10 | > 10 | > 10 | > 10 | > 10 | > 10
25 | C/C(=N\Nc1nc2cc(C)ccc2s1)c1ccccn1 | 11.1 | 43.1 | 11.8 | – | > 40.9 | – | 9.18 | – | 28.5 | 5.65

Reference: PubChem BioAssay (NCI)
